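96-well plates; 48 h exposure; 5 concentrations. Endpoints by linear interpolation between flanking doses. Not reached: highest tested concentration assigned. GI50 is the concentration that inhibits growth by half.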 The source made the active and inactive calls. Cut-off read from the data, not from the text of the source: active = GI50 up to about 1.1 µM and inactive = higher.
Legend:
Test in all cases: inhibition of tumour cell growth, NCI panel, 48 h
786-0 = tested on: 786-0
LOX IMVI = tested on: LOX IMVI
SK-MEL-28 = tested on: SK-MEL-28
K562 = tested on: K562
NCI-H460 = tested on: NCI-H460
NCI-H226 = tested on: NCI-H226
IGROV-1 = tested on: IGROV-1
SR = tested on: SR
DU-145 = tested on: DU-145
HL-60 = tested on: HL-60
COLO 205 = tested on: COLO 205
MCF7 = tested on: MCF7
SN12C = tested on: SN12C
HT-29 = tested on: HT-29
SW-620 = tested on: SW-620
SK-MEL-2 = tested on: SK-MEL-2
BT-549 = tested on: BT-549
Malme-3M = tested on: Malme-3M
HCT-15 = tested on: HCT-15
SNB-75 = tested on: SNB-75

SMILES | GI50 (786-0) | GI50 (LOX IMVI) | GI50 (SK-MEL-28) | GI50 (K562) | GI50 (NCI-H460) | GI50 (NCI-H226) | GI50 (IGROV-1) | GI50 (SR) | GI50 (DU-145) | GI50 (HL-60) | GI50 (COLO 205) | GI50 (MCF7) | GI50 (SN12C) | GI50 (HT-29) | GI50 (SW-620) | GI50 (SK-MEL-2) | GI50 (BT-549) | GI50 (Malme-3M) | GI50 (HCT-15) [µM] | GI50 (SNB-75)
CNC(=O)Nn1c(SC)nc2ccccc21 | > 100 µM (inactive) | > 100 µM (inactive) | > 100 µM (inactive) | > 100 µM (inactive) | > 100 µM (inactive) | > 100 µM (inactive) | > 100 µM (inactive) | > 100 µM (inactive) | > 100 µM (inactive) | > 100 µM (inactive) | > 100 µM (inactive) | > 100 µM (inactive) | > 100 µM (inactive) | > 100 µM (inactive) | > 100 µM (inactive) | > 100 µM (inactive) | > 100 µM (inactive) | > 100 µM (inactive) | > 100 | –
COC(=O)/C=C\[C@H]1[C@H](C)N1S(=O)(=O)c1ccc(C)cc1 (stereo not given in full) | > 100 µM (inactive) | > 100 µM (inactive) | > 100 µM (inactive) | > 100 µM (inactive) | > 100 µM (inactive) | > 100 µM (inactive) | > 100 µM (inactive) | > 100 µM (inactive) | > 100 µM (inactive) | > 100 µM (inactive) | > 100 µM (inactive) | > 100 µM (inactive) | > 100 µM (inactive) | > 100 µM (inactive) | > 100 µM (inactive) | > 100 µM (inactive) | > 100 µM (inactive) | > 100 µM (inactive) | 70.3 | –
CN1c2ccccc2C2c3c(O)ccc(O)c3C=C([N+](=O)[O-])C21 (stereo not given) | 0.519 µM (active) | 0.407 µM (active) | 2.03 µM (inactive) | 0.497 µM (active) | 1.9 µM (inactive) | 16.2 µM (inactive) | 0.492 µM (active) | 0.569 µM (active) | 1.44 µM (inactive) | 0.684 µM (active) | 0.653 µM (active) | 0.155 µM (active) | 0.312 µM (active) | 0.136 µM (active) | 0.406 µM (active) | 1.98 µM (inactive) | 5.36 µM (inactive) | – | 1.08 | 4.7 µM (inactive)
O=C1C(Cl)=C(N2CCOCC2)C(=O)c2c(O)ccc(O)c21 | 0.296 µM (active) | 0.186 µM (active) | 0.288 µM (active) | 10 µM (inactive) | 0.881 µM (active) | 1.83 µM (inactive) | 0.612 µM (active) | 1.4 µM (inactive) | 1.53 µM (inactive) | – | 0.19 µM (active) | 0.213 µM (active) | 0.207 µM (active) | 0.233 µM (active) | 0.156 µM (active) | 0.288 µM (active) | 0.173 µM (active) | 0.223 µM (active) | 0.155 | 0.667 µM (active)
O=Cc1ccc(-c2ccc(S(=O)(=O)O)cc2)o1 | > 100 µM (inactive) | > 100 µM (inactive) | > 100 µM (inactive) | > 100 µM (inactive) | > 100 µM (inactive) | > 100 µM (inactive) | > 100 µM (inactive) | > 100 µM (inactive) | > 100 µM (inactive) | > 100 µM (inactive) | > 100 µM (inactive) | > 100 µM (inactive) | > 100 µM (inactive) | > 100 µM (inactive) | > 100 µM (inactive) | > 100 µM (inactive) | > 100 µM (inactive) | > 100 µM (inactive) | > 100 | –
Cc1n[nH]c(=S)n1/N=C/c1ccc(-c2ccc(Cl)cc2)o1 | > 100 µM (inactive) | > 100 µM (inactive) | > 100 µM (inactive) | > 100 µM (inactive) | > 100 µM (inactive) | > 100 µM (inactive) | > 100 µM (inactive) | > 100 µM (inactive) | > 100 µM (inactive) | 44.2 µM (inactive) | – | > 100 µM (inactive) | – | > 100 µM (inactive) | > 100 µM (inactive) | 29.8 µM (inactive) | 11.3 µM (inactive) | – | > 100 | 31.9 µM (inactive)
O=C1Nc2ccc(S(=O)(=O)NCCO)cc2/C1=C1/Nc2ccccc2C1=O | 9.31 µM (inactive) | 42 µM (inactive) | > 100 µM (inactive) | 4.28 µM (inactive) | 30.3 µM (inactive) | > 100 µM (inactive) | 1.04 µM (active) | 1.01 µM (active) | 8 µM (inactive) | – | 2.82 µM (inactive) | 0.475 µM (active) | 67.5 µM (inactive) | > 100 µM (inactive) | 11.9 µM (inactive) | 4.16 µM (inactive) | 3.98 µM (inactive) | 40.8 µM (inactive) | 13.3 | 1.97 µM (inactive)
O=C1OC(c2ccccc2)=NC1c1ccccc1 (stereo not given) | > 100 µM (inactive) | > 100 µM (inactive) | > 100 µM (inactive) | > 100 µM (inactive) | > 100 µM (inactive) | > 100 µM (inactive) | > 100 µM (inactive) | > 100 µM (inactive) | > 100 µM (inactive) | > 100 µM (inactive) | > 100 µM (inactive) | > 100 µM (inactive) | > 100 µM (inactive) | > 100 µM (inactive) | > 100 µM (inactive) | – | > 100 µM (inactive) | – | > 100 | > 100 µM (inactive)
Cc1c(O)c(OC2OC(CO)C(O)C(O)C2O)cc2c1CC[C@@H]1C2(C)C(=O)C[C@]2(C)[C@@H]([C@@](C)(O)C3CCC(C)(C)O3)[C@H](O)C[C@@]12C (stereo not given in full) | > 100 µM (inactive) | > 100 µM (inactive) | > 100 µM (inactive) | > 100 µM (inactive) | > 100 µM (inactive) | > 100 µM (inactive) | > 100 µM (inactive) | > 100 µM (inactive) | > 100 µM (inactive) | – | > 100 µM (inactive) | > 100 µM (inactive) | > 100 µM (inactive) | > 100 µM (inactive) | > 100 µM (inactive) | > 100 µM (inactive) | > 100 µM (inactive) | > 100 µM (inactive) | > 100 | > 100 µM (inactive)
COc1ccc2c(CC(=O)O)cc(=O)oc2c1 | > 100 µM (inactive) | > 100 µM (inactive) | > 100 µM (inactive) | > 100 µM (inactive) | > 100 µM (inactive) | > 100 µM (inactive) | > 100 µM (inactive) | > 100 µM (inactive) | > 100 µM (inactive) | > 100 µM (inactive) | > 100 µM (inactive) | > 100 µM (inactive) | > 100 µM (inactive) | > 100 µM (inactive) | > 100 µM (inactive) | – | > 100 µM (inactive) | 54.8 µM (inactive) | > 100 | –
O=C1OC2(c3ccccc31)c1cc(I)c(O)c(I)c1Oc1c2cc(I)c(O)c1I [ERYTHROSINE] | > 100 µM (inactive) | 76.6 µM (inactive) | > 100 µM (inactive) | > 100 µM (inactive) | > 100 µM (inactive) | 37.4 µM (inactive) | > 100 µM (inactive) | > 100 µM (inactive) | > 100 µM (inactive) | – | > 100 µM (inactive) | > 100 µM (inactive) | > 100 µM (inactive) | > 100 µM (inactive) | > 100 µM (inactive) | > 100 µM (inactive) | 45.8 µM (inactive) | 64.1 µM (inactive) | 31.3 | > 100 µM (inactive)

Reference: ChEMBL document CHEMBL1201862, “PubChem BioAssay data set” (2004)
